This note sets out measurements from ChEMBL document CHEMBL3243951, “Relationship between structure and antineoplastic activity of arylsulfonylhydrazones of 2-formylprydine N-oxide” (J Med Chem, 1978).

In data set [1] the test system is Mus musculus. In words: Toxicity in CD-1 mouse allografted with mouse sarcoma 180 cells assessed as change in body weight at 80 mg/kg, qd administered for 6 days measured during compound treatment (reference value: 30.2%). Type of data set: organism-based. More on the design: dose 80 mg/kg. As to conditions: in vivo, 144 h.
In data set [2] the test system is Sarcoma-180. In words: Antineoplastic activity against mouse sarcoma 180 cells allografted in CD-1 mouse assessed as 50 day survivors at 80 mg/kg, qd administered for 6 days relative to control. In kind it is functional.
For data set [3], the system named is Sarcoma-180. Put plainly: Antineoplastic activity against mouse sarcoma 180 cells allografted in CD-1 mouse assessed as increase in survival rate at 80 mg/kg, qd administered for 6 days relative to control. In kind it is functional.
The test system of data set [4] is Mus musculus. Put plainly: Toxicity in CD-1 mouse allografted with mouse sarcoma 180 cells assessed as change in body weight at 60 mg/kg, qd administered for 6 days measured during compound treatment (reference value: 30.2%). In kind it is organism-based. More on the design: dose 60 mg/kg. The following applies: in vivo, 144 h.
Data set [5] concerns Sarcoma-180. Put plainly: Antineoplastic activity against mouse sarcoma 180 cells allografted in CD-1 mouse assessed as increase in survival rate at 60 mg/kg, qd administered for 6 days relative to control. Type of data set: functional.
Data set [6] deals with Sarcoma-180. Put plainly: Antineoplastic activity against mouse sarcoma 180 cells allografted in CD-1 mouse assessed as 50 day survivors at 60 mg/kg, qd administered for 6 days relative to control. In kind it is functional.
For data set [7], the system named is Mus musculus. Put plainly: Toxicity in BDF1 mouse allografted with mouse L1210 cells assessed as change in body weight at 80 mg/kg, qd administered for 6 days measured during compound treatment (reference value: 14.8%). In kind it is organism-based. More on the design: dose 80 mg/kg. The following applies: in vivo, 144 h.
Data set [8] relates to Sarcoma-180. In words: Antineoplastic activity against mouse sarcoma 180 cells allografted in CD-1 mouse assessed as increase in survival rate at 40 mg/kg, qd administered for 6 days relative to control. Type of data set: functional.
Data set [9] has as its system Mus musculus. In words: Toxicity in CD-1 mouse allografted with mouse sarcoma 180 cells assessed as change in body weight at 40 mg/kg, qd administered for 6 days measured during compound treatment (reference value: 30.2%). In kind it is organism-based. More on the design: dose 40 mg/kg. The following applies: in vivo, 144 h.
Data set [10] deals with L1210. In words: Antineoplastic activity against mouse L1210 cells allografted in BDF1 mouse assessed as survival time at 80 mg/kg, qd administered for 6 days (reference value: 8.4 days). In kind it is functional.
Data set [11] relates to Sarcoma-180. In words: Antineoplastic activity against mouse sarcoma 180 cells allografted in CD-1 mouse assessed as 50 day survivors at 40 mg/kg, qd administered for 6 days relative to control. Type of data set: functional.
The test system of data set [12] is Mus musculus. Put plainly: Toxicity in CD-1 mouse allografted with mouse sarcoma 180 cells assessed as change in body weight at 20 mg/kg, qd administered for 6 days measured during compound treatment (reference value: 30.2%). In kind it is organism-based. More on the design: dose 20 mg/kg. As to conditions: in vivo, 144 h.
For data set [13], the system named is Sarcoma-180. In words: Antineoplastic activity against mouse sarcoma 180 cells allografted in CD-1 mouse assessed as 50 day survivors at 20 mg/kg, qd administered for 6 days relative to control. In kind it is functional.
The test system of data set [14] is Sarcoma-180. Put plainly: Antineoplastic activity against mouse sarcoma 180 cells allografted in CD-1 mouse assessed as increase in survival rate at 20 mg/kg, qd administered for 6 days relative to control. Type of data set: functional.
The subject of data set [15] is L1210. Put plainly: Antineoplastic activity against mouse L1210 cells allografted in BDF1 mouse assessed as survival time at 60 mg/kg, qd administered for 6 days (reference value: 8.4 days). In kind it is functional.
Data set [16] deals with Mus musculus. Put plainly: Toxicity in BDF1 mouse allografted with mouse L1210 cells assessed as change in body weight at 60 mg/kg, qd administered for 6 days measured during compound treatment (reference value: 14.8%). In kind it is organism-based. More on the design: dose 60 mg/kg. As to conditions: in vivo, 144 h.
The test system of data set [17] is Mus musculus. Put plainly: Toxicity in BDF1 mouse allografted with mouse L1210 cells assessed as change in body weight at 100 mg/kg, qd administered for 6 days measured during compound treatment (reference value: 14.8%). In kind it is organism-based. More on the design: dose 100 mg/kg. As to conditions: in vivo, 144 h.
For data set [18], the system named is L1210. Put plainly: Antineoplastic activity against mouse L1210 cells allografted in BDF1 mouse assessed as survival time at 100 mg/kg, qd administered for 6 days (reference value: 8.4 days). In kind it is functional.

For `Nc1cccc(S(=O)(=O)N/N=C/c2cccc[n+]2[O-])c1`, in the data set on Mus musculus [1], the Activity is on record as -10.3%. For the same molecule, the survival at 80 mg/kg with Sarcoma-180 [2] came out at 0%. The T/C with Sarcoma-180 [3] was 364%.

As for `Nc1ccc(S(=O)(=O)N/N=C/c2cccc[n+]2[O-])cc1`, in the data set on Mus musculus [4], the Activity came to 2.4%. For the same molecule, the T/C in the data set on Sarcoma-180 [5] stood at 276%. The survival at 60 mg/kg with Sarcoma-180 [6] was found to be 0%.

In the case of `O=S(=O)(N/N=C/c1cccc[n+]1[O-])c1ccccc1`, the Activity in the data set on Mus musculus [7] is on record as -8%; in the data set on Mus musculus [9] it was -5.2%. Further, in the data set on Sarcoma-180 [8], the T/C is 339%. In addition, in the data set with L1210 [10], the Survival amounted to 10.6 days. For the same molecule, the survival at 40 mg/kg in the data set on Sarcoma-180 [11] came out at 20%.

Consider `O=S(=O)(N/N=C/c1cccc[n+]1[O-])c1ccc2ccccc2c1`, for which the Activity with Mus musculus [4] is reported as -1.2%. In addition, the T/C with Sarcoma-180 [5] is reported as 308%. Also, in the data set with Sarcoma-180 [6], the survival at 60 mg/kg stood at 0%.

`O=S(=O)(N/N=C/c1cc(N2CCOCC2)cc[n+]1[O-])c1ccccc1`: the Activity in the data set with Mus musculus [12] is given as 1.4%. For the same molecule, the survival at 20 mg/kg in the data set with Sarcoma-180 [13] is 0%. Besides, in the data set on Sarcoma-180 [14], the T/C worked out at 242%.

In the case of `O=C(NNS(=O)(=O)c1ccccc1)c1cccc[n+]1[O-]`, the T/C in the data set with Sarcoma-180 [8] came to 107%. Further, the Activity in the data set on Mus musculus [9] amounted to 20.7%. Moreover, the survival at 40 mg/kg in the data set on Sarcoma-180 [11] came out at 0%.

With `Cc1ccc(S(=O)(=O)N/N=C/c2cccc[n+]2[O-])cc1`, the Activity is -7.4% in the data set with Mus musculus [7] and -8% in the data set with Mus musculus [4]. Besides, in the data set on Sarcoma-180 [5], the T/C was determined as 307%. The survival at 60 mg/kg in the data set with Sarcoma-180 [6] worked out at 0%. Moreover, in the data set on L1210 [10], the Survival was 14.3 days.

Take `O=S(=O)(N/N=C/c1cccc[n+]1[O-])c1ccc(F)cc1`: the Activity was -5.7% in the data set on Mus musculus [4] and 1.6% with Mus musculus [16]. Besides, the T/C in the data set with Sarcoma-180 [5] is listed as 337%. The Survival in the data set with L1210 [15] is 11.8 days. Moreover, in the data set on Sarcoma-180 [6], the survival at 60 mg/kg worked out at 20%.

For `O=S(=O)(N/N=C/c1cccc[n+]1[O-])c1ccc2c(c1)Cc1ccccc1-2`, the T/C in the data set on Sarcoma-180 [8] was 276%. In the data set with Mus musculus [9], the Activity was -4.7%. Besides, the survival at 40 mg/kg in the data set with Sarcoma-180 [11] stood at 0%.

Turning to `Cc1ccccc1S(=O)(=O)N/N=C/c1cccc[n+]1[O-]`, the Activity in the data set with Mus musculus [4] was -1.9%; in the data set with Mus musculus [17], -11.1%. Also, the T/C with Sarcoma-180 [5] is 285%. In the data set on Sarcoma-180 [6], the survival at 60 mg/kg was 0%. Moreover, the Survival in the data set on L1210 [18] stood at 19.9 days.

`O=[N+]([O-])c1ccc(S(=O)(=O)N/N=C/c2cccc[n+]2[O-])cc1`: the Activity in the data set on Mus musculus [1] is listed as -7.1%. For the same molecule, the survival at 80 mg/kg in the data set on Sarcoma-180 [2] turned out to be 10%. Moreover, the T/C in the data set on Sarcoma-180 [3] came to 345%.

`O=[N+]([O-])c1cccc(S(=O)(=O)N/N=C/c2cccc[n+]2[O-])c1`: the Activity in the data set on Mus musculus [7] was -5.4%; in the data set on Mus musculus [4], -7.5%. The T/C in the data set with Sarcoma-180 [5] worked out at 390%. In the data set with Sarcoma-180 [6], the survival at 60 mg/kg is 60%. The Survival with L1210 [10] was 12.4 days.

For `O=S(=O)(N/N=C/c1cccc[n+]1[O-])c1cccnc1`, the Activity in the data set on Mus musculus [4] was found to be 0%. Further, the T/C in the data set on Sarcoma-180 [5] was found to be 276%. Moreover, the survival at 60 mg/kg in the data set on Sarcoma-180 [6] turned out to be 0%.

For the molecule `O=S(=O)(N/N=C/c1cc(Cl)cc[n+]1[O-])c1ccccc1`, the Activity in the data set with Mus musculus [12] is listed as 10.8%. In addition, in the data set with Sarcoma-180 [13], the survival at 20 mg/kg was determined as 0%. Further, the T/C in the data set with Sarcoma-180 [14] is recorded as 156%.

Regarding `O=S(=O)(N/N=C/c1cccc[n+]1[O-])c1cccc2ccccc12`, the Activity with Mus musculus [4] is recorded as -3.4%. For the same molecule, the T/C in the data set on Sarcoma-180 [5] was 261%. In addition, in the data set with Sarcoma-180 [6], the survival at 60 mg/kg came out at 0%.

For `COc1ccc(S(=O)(=O)N/N=C/c2cccc[n+]2[O-])cc1`, the values for the Activity with Mus musculus [7] and in the data set on Mus musculus [1] were -4.9% and -11.6%, respectively. Besides, the survival at 80 mg/kg in the data set on Sarcoma-180 [2] was determined as 40%. Moreover, the Survival with L1210 [10] is 19.7 days. The T/C in the data set on Sarcoma-180 [3] was determined as 356%.

In the case of `C/C(=N\NS(=O)(=O)c1ccccc1)c1cccc[n+]1[O-]`, the Activity in the data set with Mus musculus [4] is recorded as 23.5%. For the same molecule, the T/C in the data set on Sarcoma-180 [5] was found to be 130%. The survival at 60 mg/kg in the data set with Sarcoma-180 [6] was found to be 0%.

For the molecule `O=S(=O)(N/N=C/c1cccc[n+]1[O-])c1ccc(Br)cc1`, in the data set with Sarcoma-180 [8], the T/C was 240%. In the data set on Mus musculus [9], the Activity is on record as -3.5%. In the data set with Sarcoma-180 [11], the survival at 40 mg/kg worked out at 0%.

For `O=S(=O)(N/N=C/c1cccc[n+]1[O-])c1ccc(Cl)cc1`, the T/C in the data set with Sarcoma-180 [8] was 260%. For the same molecule, the Activity with Mus musculus [9] is on record as -0.6%. For the same molecule, in the data set with Sarcoma-180 [11], the survival at 40 mg/kg came to 0%.

Turning to `O=[N+]([O-])c1cc[n+]([O-])c(/C=N/NS(=O)(=O)c2ccccc2)c1`, the Activity with Mus musculus [4] is reported as -5.4%. The T/C in the data set on Sarcoma-180 [5] was found to be 293%. In addition, the survival at 60 mg/kg in the data set with Sarcoma-180 [6] turned out to be 0%.

Broadly, the T/C is the result in the treated group divided by that in the control group, in per cent.
